From the supplement of paper PMC10307832

Assays:
Experiment in all cases: relative viability (nuclei count vs DMSO), 5 days (fraction); higher = more cells survive
AGI-6780 + Vorinostat = compound: O=C(Nc1cccc(C(F)(F)F)c1)Nc1cc(S(=O)(=O)NC2CC2)ccc1-c1ccsc1 [AGI-6780] + O=C(CCCCCCC(=O)Nc1ccccc1)NO [Vorinostat] (partner 1 µM)
How it was run: (§1)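 Relative viability was taken as the ratio of nuclei in treated wells to nuclei in vehicle wells. Lung cancer cell lines in 1536-well plates received compounds by pin tool one day after seeding, either one drug alone or a fixed anchor-drug dose plus five library-drug doses (not always all listed) in √10 steps. Nuclei were counted on 4× images after 5 days of treatment, and values are medians of duplicate plates.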

AGI-6780 + Navitoclax = compound: O=C(Nc1cccc(C(F)(F)F)c1)Nc1cc(S(=O)(=O)NC2CC2)ccc1-c1ccsc1 [AGI-6780] + CC1(C)CCC(c2ccc(Cl)cc2)=C(CN2CCN(c3ccc(C(=O)NS(=O)(=O)c4ccc(N[C@H](CCN5CCOCC5)CSc5ccccc5)c(S(=O)(=O)C(F)(F)F)c4)cc3)CC2)C1 [Navitoclax] (partner 0.5 µM)
How it was run: as §1

AGI-6780 + Crizotinib = compound: O=C(Nc1cccc(C(F)(F)F)c1)Nc1cc(S(=O)(=O)NC2CC2)ccc1-c1ccsc1 [AGI-6780] + C[C@@H](Oc1cc(-c2cnn(C3CCNCC3)c2)cnc1N)c1c(Cl)ccc(F)c1Cl [Crizotinib] (partner 1 µM)
How it was run: as §1

AGI-6780 + Dasatinib = compound: O=C(Nc1cccc(C(F)(F)F)c1)Nc1cc(S(=O)(=O)NC2CC2)ccc1-c1ccsc1 [AGI-6780] + Cc1nc(Nc2ncc(C(=O)Nc3c(C)cccc3Cl)s2)cc(N2CCN(CCO)CC2)n1 [Dasatinib] (partner 0.075 µM)
How it was run: as §1

Cell Line	relative viability (AGI-6780 + Vorinostat; first compound 0.08 µM)	relative viability (AGI-6780 + Vorinostat; first compound 0.253 µM)	relative viability (AGI-6780 + Vorinostat; first compound 0.8 µM)	relative viability (AGI-6780 + Vorinostat; first compound 2.53 µM)	relative viability (AGI-6780 + Vorinostat; first compound 8 µM)	relative viability (AGI-6780 + Navitoclax; first compound 0.08 µM)	relative viability (AGI-6780 + Navitoclax; first compound 0.253 µM)	relative viability (AGI-6780 + Navitoclax; first compound 0.8 µM)	relative viability (AGI-6780 + Navitoclax; first compound 2.53 µM)	relative viability (AGI-6780 + Navitoclax; first compound 8 µM)	relative viability (AGI-6780 + Crizotinib; first compound 0.08 µM)	relative viability (AGI-6780 + Crizotinib; first compound 0.253 µM)	relative viability (AGI-6780 + Crizotinib; first compound 0.8 µM)	relative viability (AGI-6780 + Crizotinib; first compound 2.53 µM)	relative viability (AGI-6780 + Crizotinib; first compound 8 µM)	relative viability (AGI-6780 + Dasatinib; first compound 0.08 µM)	relative viability (AGI-6780 + Dasatinib; first compound 0.253 µM)	relative viability (AGI-6780 + Dasatinib; first compound 0.8 µM)	relative viability (AGI-6780 + Dasatinib; first compound 2.53 µM)	relative viability (AGI-6780 + Dasatinib; first compound 8 µM)
RERF-LC-KJ	0.784	0.724	0.795	0.596	0.697	1.18	1.08	1.16	0.834	0.911	0.769	0.879	0.808	0.791	0.792	0.895	0.93	0.822	0.511	0.667
SK-MES-1	1.21	1.17	1	1.03	0.994	1.31	1.22	1.09	1.21	1.28	0.942	0.964	0.935	0.871	0.953	0.379	0.428	0.367	0.24	0.338
NCI-H1437	0.818	0.856	0.827	0.751	0.636	1.19	1.06	1.12	1.07	0.966	0.974	0.87	0.922	0.965	0.916	0.371	0.493	0.404	0.306	0.342
HOP-62	0.61	0.833	0.655	0.617	0.813	0.974	1.01	1.13	1.11	1.19	0.857	0.919	0.971	0.731	0.502	0.713	0.642	0.633	0.634	0.63
HCC-15	0.917	0.88	0.875	0.832	0.828	0.727	0.698	0.743	0.641	0.684	0.831	0.833	0.834	0.813	0.825	0.732	0.636	0.736	0.437	0.621
NCI-H441	0.748	0.711	0.853	0.547	0.676	0.702	0.993	0.604	0.487	0.663	0.766	0.988	1.05	0.513	0.887	0.669	0.639	0.597	0.548	0.472
NCI-H2405	–	0.975	0.943	0.937	0.954	0.8	0.9	0.725	–	0.836	0.839	0.801	0.583	0.827	0.829	0.217	0.205	0.188	0.194	0.203
NCI-H1993	1.21	0.811	0.853	–	0.784	1.1	0.986	0.903	0.667	1.14	0.899	0.913	0.931	0.84	1	0.661	0.724	0.713	0.485	0.549
